Test results reported in patent publication US9896441B2 (Lycera Corporation, priority 2014, dated 2018).
pEC50: −log10 of the molar value.

Key:
Gal4-RORγ-LBD = molecular target: T1, Gal4-RORγ-LBD (Homo sapiens, UniProt P51449); experiment: Gal4-RORγ Luciferase Reporter Assay in HEK-293T Cells; format: cell-based; conditions: HEK-293 cells, luciferase reporter; for Gal4-RORγ Assay Max Response: maximum response
T1 construct: expressed in transfected cells
T1 sequence (P51449 269-508 limits assumed): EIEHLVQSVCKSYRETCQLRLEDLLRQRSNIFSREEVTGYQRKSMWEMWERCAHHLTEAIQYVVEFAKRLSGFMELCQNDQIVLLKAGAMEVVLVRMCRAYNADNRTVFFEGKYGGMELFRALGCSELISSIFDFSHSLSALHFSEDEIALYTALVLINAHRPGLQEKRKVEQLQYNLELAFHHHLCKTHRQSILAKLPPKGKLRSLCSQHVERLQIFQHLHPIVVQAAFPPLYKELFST
In short: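 HEK-293 cells were co-transfected with Gal4-RORγ-LBD and a Gal4-luciferase reporter, then exposed overnight at 37 °C to compounds with […] ursolic acid present (0.2% DMSO). Luminescence was read with One-Glo after 10 min at RT, untreated signal was set as 100, and Max Response was taken as the upper plateau of a 4-parameter logistic fit.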

RORγ-LBD = molecular target: T2, RORγ-LBD (Homo sapiens, UniProt P51449); experiment: RORγ-Ligand Binding Domain (LBD) TR-FRET Assay; format: biochemical; conditions: for TR-FRET Assay Max Response: maximum response;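 on TR-FRET Assay Max Response: 665/615 nm signal ratio set to 100 without ursolic acid or test compound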
T2 construct: made in house; host or cells: SF9 cells (baculovirus); used as diluted lysate
T2 sequence (P51449 269-508 limits assumed): T1 sequence (P51449 269-508 limits assumed)
In short: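 His-tagged RORγ-LBD from SF9 baculovirus lysate, ~3 nM final, in 50 mM Tris pH 7.0, 50 mM KCl, 1 mM EDTA, 0.1 mM DTT, 0.01% BSA. Biotinylated SRC1 LXXLL peptide at 200 nM final with 2 μM ursolic acid; TR-FRET read-out, 1% DMSO final.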

| Structure (SMILES) | pEC50 (Gal4-RORγ-LBD; in presence of ursolic acid) | pEC50 (RORγ-LBD; RORγ-LBD TR-FRET assay) | pEC50 (Gal4-RORγ-LBD; with ursolic acid) | pEC50 (RORγ-LBD; RORγ-LBD TR-FRET) | Gal4-RORγ Assay Max Response (Gal4-RORγ-LBD; in presence of ursolic acid) | TR-FRET Assay Max Response (RORγ-LBD; RORγ-LBD TR-FRET assay) |
| --- | --- | --- | --- | --- | --- | --- |
| N[C@@H]1Cc2ccc(OCc3c(F)cccc3Cl)cc2N(S(=O)(=O)c2cccc(C(F)(F)F)c2)C1 [Example 159, (R)-7-((2-Chloro-6-fluorobenzyl)oxy)-1-((3-(trifluoromethyl)phenyl)sulfonyl)-1,2,3,4-tetrahydroquinolin-3-amine] | 5.30 to 6.30 | > 6.30 |  |  |  |  |
| COc1cc(S(=O)(=O)N2C[C@H](CC(C)(C)C(=O)O)Cc3ccc(OCc4c(F)cccc4Cl)cc32)ccc1F [Example 27, (S)-3-(7-((2-Chloro-6-fluorobenzyl)oxy)-1-((4-fluoro-3-methoxyphenyl)sulfonyl)-1,2,3,4-tetrahydroquinolin-3-yl)-2,2-dimethylpropanoic acid] |  |  | > 6.30 | > 6.30 |  |  |
| Cc1ccc(F)c(/C=C/c2ccc3c(c2)N(S(=O)(=O)c2cccc(C(F)(F)F)c2)C[C@H](CCC(=O)O)O3)n1 [Example 89CG, (S,E)-3-(6-(2-(3-fluoro-6-methylpyridin-2-yl)vinyl)-4-((3-(trifluoromethyl)phenyl)sulfonyl)-3,4-dihydro-2H-benzo[b][1,4]-oxazin-2-yl)propanoic acid] |  |  | 5.00 to 5.30 | > 6.30 |  |  |
| COC(=O)CC[C@H]1CN(S(=O)(=O)c2cc(Cl)cnc2OCCO)c2cc(/C=C(\C)c3c(F)cccc3Cl)ccc2O1 [Example 69, Methyl (S,E)-3-(4-((5-chloro-2-(2-hydroxyethoxy)pyridin-3-yl)sulfonyl)-6-(2-(2-chloro-6-fluorophenyl)prop-1-en-1-yl)-3,4-dihydro-2H-benzo[b][1,4]oxazin-2-yl)propanoate] |  |  | < 5.00 | > 6.30 |  |  |
| CCOC(=O)C1CCN(CCC[C@H]2CN(S(=O)(=O)c3cccc(C(F)(F)F)c3)c3cc(/C=C(\C)c4c(F)cccc4Cl)ccc3O2)CC1 [Example 119E, ethyl (S,E)-1-(3-(6-(2-(2-chloro-6-fluorophenyl)prop-1-en-1-yl)-4-((3-(trifluoromethyl)phenyl)sulfonyl)-3,4-dihydro-2H-benzo[b][1,4]oxazin-2-yl)propyl)piperidine-4-carboxylate] | 5.30 to 6.30 | > 6.30 |  |  | ** (a value in the range of greater than 90 to 150) | *** (a value in the range of greater than 150 to 200) |
| C[C@@H]1C/C(=C\c2ccc3c(c2)N(S(=O)(=O)c2cccc(C(F)(F)F)c2)C[C@H](CCC(=O)O)O3)C[C@H](C)C1 [Example 95Z, 3-((S)-6-((E)-((3R,5S)-3,5-dimethylcyclohexylidene)-methyl)-4-((3-(trifluoromethyl)-phenyl)sulfonyl)-3,4-dihydro-2H-benzo[b][1,4]oxazin-2-yl)propanoic acid] |  |  | 5.30 to 6.30 | > 6.30 |  |  |
| CC(C)n1cnc(S(=O)(=O)N2C[C@H](CCC(=O)O)Oc3ccc(/C=C/c4c(F)cccc4Cl)cc32)c1 [Example 89DY, (S,E)-3-(6-(2-chloro-6-fluorostyryl)-4-((1-isopropyl-1H-imidazol-4-yl)sulfonyl)-3,4-dihydro-2H-benzo[b][1,4]-oxazin-2-yl)propanoic acid] |  |  | 5.30 to 6.30 | > 6.30 |  |  |
| COC(=O)CC[C@H]1CN(S(=O)(=O)c2ccc(F)c(C(F)(F)F)c2)c2cc(/C=C(\C)c3c(F)cccc3Cl)ccc2O1 [Example 86B, (S,E)-methyl 3-(6-(2-(2-chloro-6-fluorophenyl)prop-1-en-1-yl)-4-((4-fluoro-3-(trifluoromethyl)-phenyl)sulfonyl)-3,4-dihydro-2H-benzo[b][1,4]oxazin-2-yl)propanoate] |  |  | > 6.30 | > 6.30 |  |  |
| O=C(O)CC[C@H]1CN(S(=O)(=O)c2cccc(C(F)(F)F)c2)c2cc(/C=C/c3c(Cl)cc(F)cc3Cl)ccc2O1 [Example 89CM, (S,E)-3-(6-(2,6-dichloro-4-fluorostyryl)-4-((3-(trifluoromethyl)phenyl)sulfonyl)-3,4-dihydro-2H-benzo[b][1,4]-oxazin-2-yl)propanoic acid] |  |  | 5.30 to 6.30 | > 6.30 |  |  |
| CCOc1ncc(C(F)(F)F)cc1S(=O)(=O)N1C[C@H](CCC(=O)OC)Oc2ccc(/C=C/c3c(Cl)cccc3C(F)F)cc21 [Example 89EK, methyl (S,E)-3-(6-(2-chloro-6-(difluoromethyl)styryl)-4-((2-ethoxy-5-(trifluoromethyl)-pyridin-3-yl)sulfonyl)-3,4-dihydro-2H-benzo[b][1,4]-oxazin-2-yl)propanoate] |  |  | 5.30 to 6.30 | > 6.30 |  |  |
| COC(=O)CC[C@H]1CN(S(=O)(=O)c2cccc(OC(F)F)c2)c2cc(/C=C/c3ncccn3)ccc2O1 [Example 89H, (S,E)-methyl 3-(4-((3-(difluoromethoxy)-phenyl)sulfonyl)-6-(2-(pyrimidin-2-yl)vinyl)-3,4-dihydro-2H-benzo[b][1,4]oxazin-2-yl)propanoate] |  |  | < 5.00 | > 6.30 |  |  |
| C/C(=C\c1ccc2c(c1)N(S(=O)(=O)c1cccc(C(F)(F)F)c1)C[C@H](CCC(=O)N1CCC[C@H]1C(=O)O)O2)c1c(F)cccc1Cl [Example 129J, (3-((S)-6-((E)-2-(2-chloro-6-fluorophenyl)prop-1-en-1-yl)-4-((3-(trifluoromethyl)phenyl)sulfonyl)-3,4-dihydro-2H-benzo[b][1,4]oxazin-2-yl)propanoyl)-L-proline] | 5.30 to 6.30 | > 6.30 |  |  | *** (a value in the range of greater than 150 to 200) | **** (a value greater than 200) |
| CCOc1nn(CC)cc1S(=O)(=O)N1C[C@H](CCC(=O)OC)Oc2ccc(/C=C/c3nccnc3Cl)cc21 [Example 89N, (S,E)-methyl 3-(6-(2-(3-chloropyrazin-2-yl)vinyl)-4-((3-ethoxy-1-ethyl-1H-pyrazol-4-yl)sulfonyl)-3,4-dihydro-2H-benzo[b][1,4]oxazin-2-yl)propanoate] |  |  | < 5.00 | 5.00 to 5.30 |  |  |
| C/C(=C\c1ccc2c(c1)N(S(=O)(=O)c1cn(C(F)F)nc1C)C[C@H](CCC(=O)O)O2)c1c(F)cccc1Cl [Example 86W, (S,E)-3-(6-(2-(2-chloro-6-fluorophenyl)prop-1-en-1-yl)-4-((1-(difluoromethyl)-3-methyl-1H-pyrazol-4-yl)sulfonyl)-3,4-dihydro-2H-benzo[b][1,4]oxazin-2-yl)propanoic acid] |  |  | < 5.00 | > 6.30 |  |  |
| CC(=O)N[C@@H]1Cc2ccc(/C=C(\C)c3c(F)cccc3Cl)cc2N(S(=O)(=O)c2cccc(C(F)(F)F)c2)C1 [Example 165, (R,E)-N-(7-(2-(2-Chloro-6-fluorophenyl)prop-1-en-1-yl)-1-((3-(trifluoromethyl)phenyl)sulfonyl)-1,2,3,4-tetrahydroquinolin-3-yl)acetamide] | > 6.30 | > 6.30 |  |  | * (a value in the range of 30 to 90) | *** (a value in the range of greater than 150 to 200) |
| COc1cc(S(=O)(=O)C2CC(CC(C)(C)C(=O)O)Oc3ccc(OCc4c(F)cccc4Cl)cc32)ccc1F (stereo not shown) [Example 186C, 3-(6-((2-chloro-6-fluorobenzyl)oxy)-4-((4-fluoro-3-methoxyphenyl)sulfonyl)chroman-2-yl)-2,2-dimethylpropanoic acid] | < 5.00 | > 6.30 |  |  | ** (a value in the range of greater than 90 to 150) | *** (a value in the range of greater than 150 to 200) |
| C/C(=C\c1ccc2c(c1)N(S(=O)(=O)c1cccc(C(F)(F)F)c1)C[C@H](CCC(C)(C)O)O2)c1c(F)cccc1Cl [Example 121B, (S,E)-4-(6-(2-(2-chloro-6-fluorophenyl)prop-1-en-1-yl)-4-((3-(trifluoromethyl)-phenyl)sulfonyl)-3,4-dihydro-2H-benzo[b][1,4]oxazin-2-yl)-2-methylbutan-2-ol] | > 6.30 | > 6.30 |  |  | ** (a value in the range of greater than 90 to 150) | ** (a value in the range of greater than 90 to 150) |
| COC(=O)CC[C@H]1CN(S(=O)(=O)c2cccc(C(F)(F)F)c2)c2cc(/C=C(\C)c3ccccc3)ccc2O1 [Example 86AB, (S,E)-methyl 3-(6-(2-phenylprop-1-en-1-yl)-4-((3-(trifluoromethyl)-phenyl)sulfonyl)-3,4-dihydro-2H-benzo[b][1,4]oxazin-2-yl)propanoate] |  |  | 5.30 to 6.30 | > 6.30 |  |  |
| COc1cc(S(=O)(=O)N2CCCc3ccc(OCc4c(Cl)cccc4Cl)cc32)ccc1F [Example 25P, 7-((2,6-dichlorobenzyl)oxy)-1-((4-fluoro-3-methoxyphenyl)sulfonyl)-1,2,3,4-tetrahydroquinoline] |  |  | > 6.30 | > 6.30 |  |  |
| C/C(=C\c1ccc2c(c1)N(S(=O)(=O)c1cccc(C(F)(F)F)c1)[C@H](C)[C@H](C(=O)O)C2)c1c(F)cccc1Cl [Example 142, (2R,3R)-7-((E)-2-(2-Chloro-6-fluorophenyl)prop-1-en-1-yl)-2-methyl-1-((3-(trifluoromethyl)phenyl)sulfonyl)-1,2,3,4-tetrahydroquinoline-3-carboxylate] | > 6.30 | > 6.30 |  |  | ** (a value in the range of greater than 90 to 150) | ** (a value in the range of greater than 90 to 150) |
